This note sets out measurements from patent US20060100226A1, “2-Thiopyrimidinones as therapeutic agents” (priority 2004, published 2006).

For experiment [1], the target named is T1, murine MEKK2 (mMEKK2) (Mus musculus, UniProt Q61083).
T1 sequence (Q61083 1-619): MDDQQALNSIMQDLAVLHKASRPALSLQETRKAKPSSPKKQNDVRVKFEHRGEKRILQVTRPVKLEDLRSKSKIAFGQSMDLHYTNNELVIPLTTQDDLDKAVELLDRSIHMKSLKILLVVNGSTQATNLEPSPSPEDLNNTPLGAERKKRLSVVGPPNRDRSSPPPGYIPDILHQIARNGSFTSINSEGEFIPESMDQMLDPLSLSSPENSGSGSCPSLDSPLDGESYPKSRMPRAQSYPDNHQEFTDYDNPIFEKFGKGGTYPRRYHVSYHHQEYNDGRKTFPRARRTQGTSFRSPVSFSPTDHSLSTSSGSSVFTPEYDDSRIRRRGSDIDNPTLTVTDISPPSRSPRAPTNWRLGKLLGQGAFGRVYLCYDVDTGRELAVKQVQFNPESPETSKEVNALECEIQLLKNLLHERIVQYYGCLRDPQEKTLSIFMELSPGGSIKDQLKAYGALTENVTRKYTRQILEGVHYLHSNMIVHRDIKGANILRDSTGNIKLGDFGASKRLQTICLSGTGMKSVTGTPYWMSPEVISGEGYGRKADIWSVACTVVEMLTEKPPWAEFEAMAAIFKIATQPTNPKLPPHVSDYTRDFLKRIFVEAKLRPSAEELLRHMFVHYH
Description: TR-FRET kinase assay (mMEKK2/MBP). The following applies: substrate biotin MBP, 60 minutes at room temperature. The format is biochemical. The method in brief: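 mMEKK2 was preincubated 10 min with compound in pH 7.5 Hepes/MgCl2/DTT/vanadate buffer, then biotin-MBP, anti-phospho-MBP antibody and ATP (5 uM solution added) were added and the reaction ran 60 min at room temperature. After EDTA stop, europium anti-mouse IgG and Cy5-streptavidin were added and TR-FRET was read at 615/665 nm.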
A general note: In TR-FRET formats the signal depends on donor and acceptor labels being close together.

The target in experiment [2] is T1, murine MEKK2 (mMEKK2). Description: MEKK2 PhosphoELISA (mMEKK2/MKK4). The format is biochemical. The conditions noted are these: substrate MKK4/SKK1 (unactive), ATP final 10 μM, O.D. 450 nm. An excerpt:
Another useful method for assessing protein kinase inhibition, and specifically MEKK2 inhibition, of compounds of the invention involves the MEKK2 phospho-antibody enzyme-linked immunosorbent assay (PhosphoELISA). This screening panel, which involves relatively few steps, is a useful indicator of potential inhibitors of MEKK2. Reactions to murine MEKK2 are observed as optical density measurements at an absorbance of 450 nm. Inhibitory activities can be expressed in terms of IC50, where IC50 is the molar concentration of compound required to inhibit protein kinase binding by 50%.
A phospho-antibody enzyme-linked immunosorbent assay (PhosphoELISA) was used to screen potential inhibitors of MEKK2. The assay was performed as follows: Compounds to be tested were weighed and solubilized in DMSO (Sigma) to a stock concentration of 10 mM. Serial dilutions starting from 1 mM were prepared with additional DMSO. These dilutions were further diluted to 250 μM in kinase reaction buffer [20 mM Hepes pH 7.5, 5 mM MgCl2, 1 mM DTT (Dithiothreitol-Sigma), 1 mM NaVO4 (sodium vanadate- Sigma). A 25 μl aliquot of this solution was transferred to a glutathione coated 96-well microplate (Pierce). A stock aliquot containing 50-125 ng of murine MEKK2 (mMEKK2) was added to each well and incubated on the microplate for 10 minutes at room temperature. A 25 μl solution of MKK4/SKK1 (unactive) was diluted 1:200 in kinase assay buffer and added to the reaction plate followed by 50 μl of 25 μM ATP (adenosine triphosphate) to afford a final well concentration of 10 μM. The reaction was allowed to proceed for 60 minutes at room temperature before washing 3 times with wash buffer [100 mM phosphate pH 7.5, 0.05% TWEEN 20 (Sigma)]. A solution of anti-phospho MKK4/SEK1 antibody (Calbiochem) and biotin anti rabbit IgG (Jackson Immunoresearch) was diluted 1:2500 in kinase reaction buffer and added to the appropriate wells. The reaction was incubated for 60 minutes at room temperature. The microplate was washed 3 times with wash buffer and 100 ul of streptavidin horseradish peroxidase (HRP-Pierce) was added and incubated for 30 minutes at room temperature. The microplate was washed 3 times with wash buffer and 100 μl of TMB (3,3′,5,5′-tetramethylbenzidine-Sigma) was added. The assay was allowed to develop for 15-20 minutes then the reaction was stopped with the addition of 100 μl of 0.2 N sulfuric acid. The optical density (O.D.) of the plate was read on the Victor™ plate reader using the absorbance at 450 nm.

Where only a bound is given, the exact number is not on record here.

A word on the IC50: it is the concentration at which inhibition is half-maximal. Low values mean higher potency, high ones lower potency. With `N#Cc1c(-c2ccccc2C(F)(F)F)nc(SCc2cccc(NC(=O)c3ccc(Cl)c(Cl)c3)c2)[nH]c1=O` [Example 2ee, 3,4-Dichloro-N-{3-[5-cyano-6-oxo-4-(2-trifluoromethyl-phenyl)-1,6-dihydro-pyrimidin-2-ylsulfanylmethyl]-phenyl}-benzamide], the 50% inhibitory concentration (IC50) was < 10 µM on murine MEKK2 (mMEKK2) [1] and < 1 µM at murine MEKK2 (mMEKK2) [2].
